The source of these data is the Kinase Knowledgebase extract (Sharma et al. 2016).

In this assay the target is MAPK14 (UniProt Q16539). Put plainly: Inhibition of MAPK14 Kinase Activity.

Each structure is given as a SMILES string. Some results are limits rather than exact numbers.

A word on the IC50: it is the concentration needed to halve the response being measured.

Chain of MAPK14 (Q16539 whole entry, looked up): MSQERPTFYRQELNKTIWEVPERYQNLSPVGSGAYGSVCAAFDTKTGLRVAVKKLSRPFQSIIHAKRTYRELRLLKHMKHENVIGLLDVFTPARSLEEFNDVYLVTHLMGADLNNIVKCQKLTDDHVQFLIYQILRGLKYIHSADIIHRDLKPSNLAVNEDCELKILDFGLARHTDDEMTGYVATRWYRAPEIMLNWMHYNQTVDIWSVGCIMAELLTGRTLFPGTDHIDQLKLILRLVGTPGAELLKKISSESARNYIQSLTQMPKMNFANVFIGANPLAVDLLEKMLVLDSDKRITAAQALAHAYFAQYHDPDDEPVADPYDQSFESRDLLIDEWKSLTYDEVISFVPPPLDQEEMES

`OCCCSc1ccc2c(-c3c(-c4ccccn4)nn4c3CCC4)ccnc2c1` returned a concentration for half-maximal inhibition (IC50) of under 20 µM. As for `CNC(=O)c1ccc2c(-c3c(-c4ccccn4)nn4c3CCC4)ccnc2c1`, the figure is under 20 µM.

In turn, `Fc1ccc(-c2nn3c(c2-c2ccnc4ccccc24)CCC3)cc1` showed an IC50 of under 20 µM. To `Cc1cccc(-c2nn3c(c2-c2ccnc4ccc(-c5ccc(F)cc5)cc24)CCC3)n1` belongs under 20 µM. As for `COC(=O)c1ccc2c(-c3c(-c4ccccn4)nn4c3CCC4)ccnc2c1`, the figure is under 20 µM; as for `O=C(NCCc1c[nH]cn1)c1ccc2c(-c3c(-c4ccccn4)nn4c3CCC4)ccnc2c1`, under 20 µM. On to `CSc1ccc2nccc(-c3c(-c4ccccn4)nn4c3CCC4)c2c1`, for which the IC50 was under 20 µM. As for `CN(C)CC(=O)Nc1ccc2c(-c3c(-c4ccccn4)nn4c3CCC4)ccnc2c1`, the figure is under 20 µM; as for `CN1CCN(CCCOc2ccc3c(-c4c(-c5ccccn5)nn5c4CCC5)ccnc3c2)CC1`, under 20 µM; as for `c1ccc(-c2nn3c(c2-c2ccnc4cc(OCCCn5ccnc5)ccc24)CCC3)nc1`, under 20 µM. As for `c1ccc(-c2nn3c(c2-c2ccc4ccccc4c2)CCC3)nc1`, the figure is under 20 µM; as for `Cc1cccc(-c2nn3c(c2-c2ccnc4ccc(C(=O)O)cc24)CCC3)n1`, under 20 µM; as for `Cc1cccc(-c2nn3c(c2-c2ccnc4cc(N)ccc24)CCC3)n1`, under 20 µM. To `COc1ccc2c(-c3c(-c4ccccn4)nn4c3CCC4)ccnc2c1` belongs under 20 µM. The molecule `Cc1cccc(-c2nn3c(c2-c2ccc4c(c2)OCO4)CCC3)n1` displayed an IC50 of under 20 µM.

Molecule `Cc1cccc(-c2nn3c(c2-c2ccc(F)cc2)CC[C@@H]3CC#N)n1` registered an IC50 of under 20 µM.
